# According to PMC6264682, “Synthesis and Adrenolytic Activity of New Propanolamines” (Molecules, 2010):
# Values joined by “and” are separate entries in the source; they are usually repeats but may differ in a detail not shown here. Identical values can stand only once. Marks after values point to notes of the source that are not given here.
# Legend:
# [1] = tested on: anesthetized male Wistar rats; assay: Effect on normal electrocardiogram (ECG) in vivo in rats; design: species or system rat; conditions: 1 mg∙kg^-1 iv, mean ± SEM
# Experimental: The effects on ECG intervals and heart rate were determined for all tested compounds at the same dose of 1 mg∙kg^-1.
# Electrocardiographic measurement was carried out using the Ascard B5 Eco apparatus, standard lead II, and paper speed of 50 mm∙s^-1. The tested compounds were administered intravenously in a dose of 1 mg∙kg^-1. The ECG recording was carried out immediately before and 1, 5 and 15 min after administration of the tested compounds. The effect of the compounds on rat ECG recording was calculated according to Cambridge et al..
# [2] = tested on: adrenaline-induced arrhythmia; assay: Prophylactic antiarrhythmic activity, adrenaline-induced arrhythmia in anesthetized rats; type: in vivo, rat; conditions: limits in brackets; for ED50 iv (dose producing 50% inhibition of premature ventricular beats): iv 15 min before adrenaline 20 μg∙kg^-1 iv; for ED50 po (dose producing 50% inhibition of premature ventricular beats): orally (intragastric) 60 min before adrenaline 20 μg∙kg^-1 iv
# Experimental: The prophylactic antiarrhythmic activity of compounds 10 and 11 was determined using an adrenaline-induced arrhythmia model of in anesthetized rats.
# Arrhythmia was evoked in thiopental (60 mg kg^-1, ip) – anaesthetized rats by iv injection of adrenaline (20 μg kg^-1). The tested compounds were administered intravenously 15 min or orally 60 min before adrenaline. […] The cardiac rhythm disturbances were recorded for 15 min after adrenaline injection. ECGs were analyzed according to the guidelines of the Lambeth Convention on ventricular premature beats (VBs), bigeminy, salvos (less than four successive VBs), ventricular tachycardia (VT, four or more successive VBs), and ventricular fibrillation (VF).
# α1-adrenoceptors = assay: Radioligand binding assay, displacement of [3H]Prazosin, rat cerebral cortex; conditions: for Ki: rat cerebral cortex, [3H]Prazosin 0.2 nM, ± SEM
# Experimental: (§1) The experiment was carried out on rat cerebral cortex. […] The brains were homogenised in 20 vol of an ice-cold 50 mM Tris–HCl buffer (pH 7.6), and were centrifuged at 20.000 × g for 20 min (0–4 °C). The cell pellet was resuspended in the Tris–HCl buffer and centrifuged again. Radioligand binding assays were performed in plates (MultiScreen/Millipore). The final incubation mixture (final volume 300 μL) consisted of 240 μL of the membrane suspension, 30 μL of [^3H]Prazosin (0.2 nM), [^3H]Clonidine (2 nM) or [^3H]CGP12177 (0.2 nM) solution, and 30 μL of the buffer containing seven to eight concentrations (10^–11–10^–4 M) of the tested compounds. […] The incubation was terminated by rapid filtration over glass fibre filters (Whatman GF/C) using a vacuum manifold (Millipore). The filters were then washed twice with the assay buffer and placed in scintillation vials with a liquid scintillation cocktail. Radioactivity was measured in a WALLAC 1409 DSA liquid scintillation counter. All the assays were made in duplicate. The radioligand binding data were analyzed using an iterative curve-fitting routine (GraphPAD/Prism, Version 3.0, San Diego, CA, USA). Ki values were calculated from the Cheng and Prusoff equation [25].
# α2-adrenoceptors = assay: Radioligand binding assay, displacement of [3H]Clonidine, rat cerebral cortex; conditions: [3H]Clonidine 2 nM, ± SEM
# Experimental: as §1
# [3] = tested on: isolated rabbit small intestine; assay: Influence on spontaneous contractions of isolated rabbit ileum; conditions: for Amplitude of contractions / Frequency of contractions: mean ± SEM
# Experimental: The influence on isolated rabbit ileum of the investigated compounds on the smooth muscle was investigated on the rabbit small intestine, according to the Magnus’ method modified and described by Orisadipe et al. The white rabbits were sacrificed by cervical dislocation and the small intestine was immediately removed, and cut into strips about 3–4 cm long. The isolated strips were incubated in Krebs solution at 37 °C and aerated with carbogen in special laboratory dishes. The isolated strip of the intestine was placed in a test glass tube with the Krebs solution constantly aerated by carbogen. After 1 hour incubation period, during which the physiological saline solution was changed every 15 min, the influence of the investigated compounds on spontaneous contractions of the rabbit ileum was evaluated. The contraction of the intestine was recorded on a TZ-4100 line recorder via isometric Harvard transducer, at the muscle load of 1 g. The influence of every single dose was recorded for 5 min.
# [4] = tested on: normotensive anesthetized rats; assay: Influence on blood pressure in normotensive anesthetized rats; type: in vivo, rat
# Experimental: Hypotensive activity of compounds 10 and 11 was determined after iv and po administration to normotensive anesthetized rats.
# Male Wistar normotensive rats were anesthetized with thiopental (50–75 mg kg^-1, ip). The right carotid artery was cannulated with a polyethylene tube, filled with heparin in saline to facilitate pressure measurement using the Datamax apparatus (Columbus Instruments). […]
# [5] = time 0 min (immediately before administration, baseline)
# [6] = concentration 0 (control before 10^-5 M)
# [7] = concentration 0 (control before 10^-6 M)
# [8] = concentration 0 (control before 10^-7 M)
# [9] = concentration 0 (control before 10^-8 M)
# [10] = concentration 0 (control before 10^-9 M)
# [11] = po, 2 mg∙kg^-1, from 40 to 90 min
structure (smiles),measurement,setting,value
"COc1ccccc1OCCNCC(O)COc1cccc2[nH]c3ccccc3c12 (stereo not shown) [Carvedilol, reference compound]",heart rate,[1]; [5],356.7 ± 21.0 Beats/min
"COc1ccccc1OCCNCC(O)COc1cccc2[nH]ccc12 (racemic) [(R,S)-9, (2R,S)-1-(1H-indol-4-yloxy)-3-(2-(2-methoxyphenoxy)ethylamino)propan-2-ol, reference compound]",P–Q,[1]; 1 min after administration,47.2 ± 1.6 ms
same,QRS,[1]; 1 min after administration,28.4 ± 1.2 ms
same,Q–T,[1]; 1 min after administration,69.2 ± 1.1 ms
same,heart rate,[1]; 1 min after administration,298.7 ± 7.2 Beats/min
same,QRS,[1]; 5 min after administration,24.9 ± 1.3 ms
same,Q–T,[1]; 5 min after administration,69.0 ± 1.6 ms
same,heart rate,[1]; 5 min after administration,294.5 ± 7.7 Beats/min
same,P–Q,[1]; 15 min after administration,46.2 ± 1.7 ms
same,QRS,[1]; 15 min after administration,26.9 ± 1.1 ms
same,Q–T,[1]; 15 min after administration,72.8 ± 1.3 ms
same,heart rate,[1]; 15 min after administration,287.3 ± 7.9 Beats/min
same,P–Q,[1]; [5],45.7 ± 2.0 ms
same,QRS,[1]; [5],26.4 ± 1.3 ms
same,Q–T,[1]; [5],72.6 ± 1.7 ms
same,heart rate,[1]; [5],304.9 ± 8.9 Beats/min
same,ED50 iv (dose producing 50% inhibition of premature ventricular beats),[2],0.34 (0.23–0.51) mg∙kg^-1
same,ED50 po (dose producing 50% inhibition of premature ventricular beats),[2],0.44 (0.18 ± 1.10) mg∙kg^-1
same,Ki,α2-adrenoceptors,1400 ± 400 nM
"COCc1cc2[nH]ccc2c(OC)c1OCC(O)CNCCOc1ccccc1OC [Compound 10, (2R,S)-1-(4-Methoxy-6-(methoxymethyl)-1H-indol-5-yloxy)-3-(2-(2-methoxyphenoxy)ethylamino)propan-2-ol]",P–Q,[1]; 1 min after administration,45.6 ± 1.6^b ms
same,QRS,[1]; 1 min after administration,31.2 ± 0.5^c ms
same,Q–T,[1]; 1 min after administration,92.0 ± 4.2 ms
same,heart rate,[1]; 1 min after administration,334.0 ± 13.0 Beats/min
same,P–Q,[1]; 5 min after administration,46.8 ± 1.6^c ms
same,QRS,[1]; 5 min after administration,31.2 ± 1.0^c ms
same,Q–T,[1]; 5 min after administration,100.0 ± 2.8 ms
same,heart rate,[1]; 5 min after administration,309.6 ± 13.7 Beats/min
same,P–Q,[1]; 15 min after administration,46.4 ± 1.6^c ms
same,QRS,[1]; 15 min after administration,32.4 ± 0.8^d ms
same,Q–T,[1]; 15 min after administration,104.0 ± 1.4^a ms
same,heart rate,[1]; 15 min after administration,297.4 ± 12.4 Beats/min
same,P–Q,[1]; [5],40.4 ± 0.4 ms
same,QRS,[1]; [5],27.6 ± 0.8 ms
same,Q–T,[1]; [5],94.4 ± 2.8 ms
same,heart rate,[1]; [5],329.4 ± 12.2 Beats/min
same,increased frequency of contractions,[3]; 10^-5 M,about 8%
same,Amplitude of contractions,[3]; 10^-5 M,1.11 ± 0.09^c g
same,Frequency of contractions,[3]; 10^-5 M,10.70 ± 0.25^a min ^-1
same,Amplitude of contractions,[3]; 10^-6 M,1.10 ± 0.07^c g
same,Frequency of contractions,[3]; 10^-6 M,11.60 ± 0.22 min ^-1
same,Amplitude of contractions,[3]; 10^-7 M,1.29 ± 0.05^a g
same,Frequency of contractions,[3]; 10^-7 M,12.15 ± 0.15 min ^-1
same,Amplitude of contractions,[3]; 10^-8 M,1.31 ± 0.06^b g
same,Frequency of contractions,[3]; 10^-8 M,12.15 ± 0.18 min ^-1
same,Amplitude of contractions,[3]; 10^-9 M,1.56 ± 0.06 g
same,Frequency of contractions,[3]; 10^-9 M,12.14 ± 0.22 min ^-1
same,Amplitude of contractions,[3]; [6],1.72 ± 0.11 g
same,Frequency of contractions,[3]; [6],11.61 ± 0.27 min ^-1
same,Amplitude of contractions,[3]; [7],1.63 ± 0.10 g
same,Frequency of contractions,[3]; [7],12.24 ± 0.25 min ^-1
same,Amplitude of contractions,[3]; [8],1.55 ± 0.10 g
same,Frequency of contractions,[3]; [8],12.05 ± 0.19 min ^-1
same,Amplitude of contractions,[3]; [9],1.53 ± 0.06 g
same,Frequency of contractions,[3]; [9],11.77 ± 0.14 min ^-1
same,Amplitude of contractions,[3]; [10],1.43 ± 0.06 g
same,Frequency of contractions,[3]; [10],12.74 ± 0.20 min ^-1
same,diminished amplitude of contractions,[3]; range of concentrations 10^-8–10^-5 M,14 to 35%
same,ED50 iv (dose producing 50% inhibition of premature ventricular beats),[2],0.35 (0.18–0.72) mg∙kg^-1
same,ED50 po (dose producing 50% inhibition of premature ventricular beats),[2],1.71 mg∙kg^-1 and 1.71 (1.52 ± 1.93) mg∙kg^-1
same,selectivity towards α1-adrenergic receptors,α1-adrenoceptors; from Ki values of Table 1,52 fold
same,Ki,α1-adrenoceptors,5.9 ± 0.3 nM
same,time after administration in which diastolic blood pressure was decreased,"[4]; iv, 0.25 mg·kg^-1",10 min
same,time after administration in which systolic blood pressure was decreased,"[4]; iv, 0.25 mg·kg^-1",20 min
same,time over which diastolic blood pressure was significantly decreased,"[4]; iv, 0.5 mg∙kg^-1",≤ 10 min
same,decrease of systolic blood pressure,"[4]; iv, 0.5 mg∙kg^-1, throughout the whole observation period",8–14%
same,hypotensive activity,"[4]; po, 1 mg∙kg^-1",disappeared
same,decrease of diastolic blood pressure,[4]; [11],11–23%
same,decrease of systolic blood pressure,[4]; [11],9–18%
same,Ki,α2-adrenoceptors,307 ± 11.7 nM
